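Results reflect a 48-hour exposure of cells in 96-well plates to compound at five concentrations. TGI denotes the concentration required for complete inhibition of growth.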
Tests used:
Assay in all cases: NCI anticancer screen, dose series, 48 h
[1] = system: NCI/ADR-RES ovarian
[2] = system: TK-10 renal
[3] = system: SF-295 CNS
[4] = system: A549 NSCLC
[5] = system: K-562 leukemia
[6] = system: OVCAR-4 ovarian
[7] = system: CCRF-CEM leukemia
[8] = system: MDA-MB-231 breast
[9] = system: UACC-257 melanoma
[10] = system: U251 CNS
[11] = system: ACHN renal
[12] = system: HS 578T breast
[13] = system: DU-145 prostate
[14] = system: HOP-92 NSCLC
[15] = system: RXF 393 renal
[16] = system: A498 renal
[17] = system: SNB-19 CNS
[18] = system: NCI-H522 lung
[19] = system: SK-MEL-5 melanoma
[20] = system: LOX IMVI melanoma

SMILES | TGI [1] | TGI [2] | TGI [3] | TGI [4] | TGI [5] | TGI [6] | TGI [7] | TGI [8] | TGI [9] | TGI [10] | TGI [11] | TGI [12] | TGI [13] | TGI [14] | TGI [15] | TGI [16] | TGI [17] | TGI [18] | TGI [19] | TGI [20]
Cc1ccc(N=NC(=Nc2ccc(Cl)cc2)c2ccc(N(CCC#N)CCC#N)cc2)cc1 | > 100 µM | 95.8 µM | > 100 µM | > 100 µM | > 100 µM | > 100 µM | > 100 µM | 81.8 µM | 76.1 µM | 59.5 µM | > 100 µM | > 100 µM | > 100 µM | > 100 µM | > 100 µM | > 100 µM | > 100 µM | 66 µM | > 100 µM | –
Cc1c2c(OCC(O)CN3CCN(c4ccccc4)CC3)nn(C)c(=O)c2c(C)n1-c1ccccc1 (stereo not drawn) | 63.8 µM | > 100 µM | 51.3 µM | 73.7 µM | 69.2 µM | > 100 µM | > 100 µM | 69.6 µM | 72.1 µM | 30.2 µM | 49.6 µM | 65.9 µM | > 100 µM | > 100 µM | 70.2 µM | 58.6 µM | > 100 µM | 42.2 µM | 30.3 µM | –
[N-]=[N+]=Nc1c(Cl)c(Cl)nc2ccccc12 | > 100 µM | > 100 µM | > 100 µM | > 100 µM | > 100 µM | > 100 µM | > 100 µM | > 100 µM | > 100 µM | – | > 100 µM | > 100 µM | > 100 µM | > 100 µM | > 100 µM | > 100 µM | > 100 µM | > 100 µM | > 100 µM | > 100 µM
COc1ccc(OC)c(C2CCc3c(cnc4nc(N)nc(N)c34)C2)c1 (stereo not drawn) | > 100 µM | 28.7 µM | 23.3 µM | 15 µM | 16.1 µM | 23.5 µM | – | 29.2 µM | 23.4 µM | 18.7 µM | 17.2 µM | 53 µM | 28.4 µM | 26.3 µM | 32.1 µM | 27.4 µM | 21.5 µM | 21.7 µM | 33.4 µM | 15.5 µM
CC(C)(C)OC(=O)NC(Cc1ccc(O)cn1)C(=O)O (stereo not drawn) | > 100 µM | > 100 µM | > 100 µM | > 100 µM | > 100 µM | > 100 µM | – | > 100 µM | > 100 µM | > 100 µM | > 100 µM | > 100 µM | > 100 µM | > 100 µM | > 100 µM | > 100 µM | > 100 µM | > 100 µM | > 100 µM | > 100 µM
CCSc1cc2c(cc1O)CC[C@@H]1[C@@H]2CC[C@]2(C)[C@@H](O)CC[C@@H]12 | 26.9 µM | 62.3 µM | – | 15.5 µM | 21 µM | 38.7 µM | 30.8 µM | 18.8 µM | 30.2 µM | 25.2 µM | 24.9 µM | 17.9 µM | 74.9 µM | 24.3 µM | 39.2 µM | 28.9 µM | 25.5 µM | 19.5 µM | 22.7 µM | 23 µM
CC1=NNC(=O)C1C1CC(c2c[nH]c3ccccc23)=NN(C(N)=O)C1=O (stereo not drawn) | > 100 µM | > 100 µM | > 100 µM | > 100 µM | > 100 µM | – | > 100 µM | > 100 µM | > 100 µM | > 100 µM | > 100 µM | > 100 µM | > 100 µM | > 100 µM | > 100 µM | > 100 µM | > 100 µM | > 100 µM | > 100 µM | > 100 µM
N#Cc1ccc(N2CCOCC2)cc1 | > 100 µM | > 100 µM | > 100 µM | > 100 µM | – | > 100 µM | > 100 µM | > 100 µM | > 100 µM | > 100 µM | > 100 µM | > 100 µM | > 100 µM | > 100 µM | > 100 µM | > 100 µM | > 100 µM | > 100 µM | > 100 µM | > 100 µM
CCC1CCN=C(NS(=O)(=O)c2cc(C)c(Cl)cc2S)N1 (stereo not drawn) | > 100 µM | > 100 µM | – | > 100 µM | > 100 µM | > 100 µM | 88.1 µM | > 100 µM | > 100 µM | 93 µM | > 100 µM | 92 µM | > 100 µM | > 100 µM | > 100 µM | > 100 µM | > 100 µM | 76.9 µM | > 100 µM | 53.2 µM
CC(Oc1ccccc1Cl)C(=O)NN1C(=O)CC(=O)NC1=S (stereo not drawn) | > 100 µM | > 100 µM | > 100 µM | > 100 µM | > 100 µM | > 100 µM | – | > 100 µM | > 100 µM | > 100 µM | > 100 µM | > 100 µM | > 100 µM | > 100 µM | > 100 µM | > 100 µM | > 100 µM | > 100 µM | > 100 µM | > 100 µM
O=C(CC(C(=O)c1cccs1)c1ccsc1)c1ccccc1 (stereo not drawn) | 80.4 µM | > 100 µM | > 100 µM | 66.2 µM | – | > 100 µM | > 100 µM | 96.9 µM | > 100 µM | > 100 µM | > 100 µM | > 100 µM | > 100 µM | > 100 µM | > 100 µM | > 100 µM | – | > 100 µM | > 100 µM | > 100 µM

Source: PubChem BioAssay (NCI)
